Test results taken from patent publication US20090048304A1, “Crystal Form of Besipirdine Chlorhydrate, Process Preparation and Use Thereof” (UROGENE, priority 2006, published 2009).
Read-outs that look alike come from different tables or passages of the source.

How the values were obtained:
[1] = storage conditions at room temperature, use and storing conditions of the powder
[2] = for Stability of the crystal form in maturation studies (summary in words): all tested conditions: 25, 50, 80 °C, 8 or 72 hours, n-butyl-acetate; for Form(s) identified after maturation: maturation time 8 hours, 100 mg suspension in 2 ml n-butyl-acetate
Experimental: 100 mg suspensions of the different polymorphic forms, separated or in mixtures, in 2 ml of n-butyl-acetate, were left for maturation during 8 or 72 hours at different temperatures.

[3] = system: bladder contractions induced by bladder irritation; conditions: in vivo, in rats; according to WO02/064126; cited from earlier work

CCCN(c1ccncc1)n1ccc2ccccc21.Cl [Form I, N-propyl-N-(4-pyridinyl)-1H-indol-1-amine chlorhydrate]
Change of the polymorphic form with time on storage [1]: does not evolve with time | Change of the polymorphic form with time on storage ([1]; listed as Polymorphic form I of besipirdine.HCl): thermodynamically the most stable of all characterized forms | Stability of the crystal form in maturation studies (summary in words) [2]: stable | Stability of the crystal form in maturation studies (summary in words) ([2]; listed as form I): thermodynamically the most stable of the three crystal forms

CCCN(c1ccncc1)n1ccc2ccccc21.Cl [Form II, N-propyl-N-(4-pyridinyl)-1H-indol-1-amine chlorhydrate]
Stability of the crystal form in maturation studies (summary in words) [2]: appears to be a stable form

CCCN(c1ccncc1)n1ccc2ccccc21.Cl [Form III, N-propyl-N-(4-pyridinyl)-1H-indol-1-amine chlorhydrate]
Stability of the crystal form in maturation studies (summary in words) [2]: quickly turns into form I

CCCN(c1ccncc1F)n1cc(C)c2ccccc21 [HP184, N-(3-fluoro-4-pyridinyl)-N-propyl-3-methyl-1H-indol-1-amine]
Frequency of bladder contractions induced by bladder irritation [3]: slightly decrease the frequency of bladder contractions

CCCN(c1ccncc1)n1ccc2ccccc21.Cl [I + II, N-propyl-N-(4-pyridinyl)-1H-indol-1-amine chlorhydrate]
Form(s) identified after maturation ([2]; 25 °C): I + II | Form(s) identified after maturation ([2]; 50 °C): I + II | Form(s) identified after maturation ([2]; 80 °C): I + II | Stability of the crystal form in maturation studies (summary in words) ([2]; listed as mixture of forms I and II): changes towards form I
